{
  "source": "patent US20200017495A1",
  "about": "“NOVEL HETEROCYCLIC COMPOUNDS AND THEIR USE IN PREVENTING OR TREATING BACTERIAL INFECTIONS” (priority 2017, published 2020)",
  "tested_on": "Escherichia coli (ECO) isolates",
  "test": "MIC of compounds alone and combined with antibacterials, broth microdilution (CLSI)",
  "assay_type": "cell-based",
  "description": "Method 2: MIC of Compounds Alone and Combined with Antibacterials Against Bacterial Isolates\nCompounds of the present invention were assessed against genotyped bacterial strains (Table 3, 4) alone or in combination with an antibacterial (Table 2). […] Log phase bacterial suspensions were adjusted to a final density of 5.10^5 CFU/mL in cation-adjusted Mueller-Hinton broth (ca-MHB; Becton-Dickinson and Company) and added to each well (98 μL). Microplates were incubated for 16-20 h at 35° C. in ambient air. The MIC of the compounds was defined as the lowest concentration of said compounds that prevented bacterial growth as read by visual inspection. The MIC of ATB at each compound concentration was defined as the lowest concentration of ATB that prevented bacterial growth as read by visual inspection.",
  "data": [
    {"smiles": "C=CC1=C(C(=O)O)N2C(=O)[C@@H](NC(=O)/C(=N\\OCC(=O)O)c3csc(N)n3)[C@H]2SC1", "note": "[FIX, Cefixime]", "values": [
      {"measurement": "MIC", "setting": "strain ECO 260096, genotype CTX-M-132", "value": ">128", "unit": "µg/mL"},
      {"measurement": "MIC", "setting": "strain ECO 260304, genotype CTX-M-15", "value": 32, "unit": "µg/mL"},
      {"measurement": "MIC", "setting": "strain ECO 260508, genotype TEM-1, CTX-M-15, OXA-1", "value": ">128", "unit": "µg/mL"},
      {"measurement": "MIC", "setting": "strain ECO RGN238, genotype OXA-1", "value": "<=0.25 μg/mL"},
      {"measurement": "MIC", "setting": "strain ECO UFR15, genotype TEM-1, OXA-48", "value": 1, "unit": "µg/mL"},
      {"measurement": "MIC", "setting": "strain ECO UFR16, compound alone", "value": ">128", "unit": "µg/mL"},
      {"measurement": "MIC", "setting": "strain ECO UFR16, genotype TEM-1, CTX-M-15, OXA-1, OXA-48", "value": ">128", "unit": "µg/mL"},
      {"measurement": "MIC", "setting": "strain ECO UFR17, genotype TEM-1, CTX-M-15, CMY-2, OXA-1, OXA-181", "value": ">128", "unit": "µg/mL"},
      {"measurement": "MIC", "setting": "strain ECO UFR18, genotype CTX-M-15, OXA-204", "value": ">128", "unit": "µg/mL"},
      {"measurement": "MIC", "setting": "strain ECO UFR19, genotype CTX-M-15, CMY-2, OXA-1, OXA-204", "value": ">128", "unit": "µg/mL"},
      {"measurement": "MIC", "setting": "strain ECO UFR20, compound alone", "value": 512, "unit": "µg/mL"},
      {"measurement": "MIC", "setting": "strain ECO UFR20, genotype SHV-1, CTX-M-15, OXA-1, OXA-232", "value": 512, "unit": "µg/mL"},
      {"measurement": "MIC", "setting": "strain ECO UFR32, genotype TEM-1, VEB-1, OXA-10", "value": 128, "unit": "µg/mL"},
      {"measurement": "MIC", "setting": "strain ECO UFR39, genotype CTX-M-15, NDM-1", "value": ">128", "unit": "µg/mL"},
      {"measurement": "MIC", "setting": "strain ECO UFR41, genotype TEM-1, CTX-M-15, CMY-2, OXA-1, NDM-4", "value": ">128", "unit": "µg/mL"},
      {"measurement": "MIC", "setting": "strain ECO UFR45, genotype TEM-1, CMY-4, OXA-1, OXA-48, VIM-1", "value": ">128", "unit": "µg/mL"},
      {"measurement": "MIC", "setting": "strain ECO UFR52, genotype TEM-1, SHV-12, IMP-8", "value": ">128", "unit": "µg/mL"},
      {"measurement": "MIC", "setting": "strain ECO UFR61O, compound alone", "value": 32, "unit": "µg/mL"},
      {"measurement": "MIC", "setting": "strain ECO UFR61O, genotype TEM-1, KPC-2", "value": 32, "unit": "µg/mL"},
      {"measurement": "MIC", "setting": "strain ECO UFR62, genotype TEM-1, CTX-M-9, KPC-2", "value": 128, "unit": "µg/mL"},
      {"measurement": "MIC", "setting": "strain ECO UFR74, genotype SHV-1, DHA-1", "value": ">128", "unit": "µg/mL"},
      {"measurement": "MIC", "setting": "strain ECO UFR86, genotype ompC-, ompF-", "value": 2, "unit": "µg/mL"},
      {"measurement": "MIC", "setting": "strain ECO UFR174, genotype TEM-1, KPC-2, OXA-1", "value": 8, "unit": "µg/mL"},
      {"measurement": "MIC", "setting": "strain ECO UFR175, genotype TEM-1, KPC-2, OXA-9", "value": 64, "unit": "µg/mL"},
      {"measurement": "MIC", "setting": "strain ECO UFR176, genotype KPC-3, OXA-9*", "value": 64, "unit": "µg/mL"},
      {"measurement": "MIC", "setting": "strain ECO UFR177, genotype TEM-1, CTX-M-15, OXA-1, OXA-2, NDM-1, RmtC, antibiotic alone", "value": ">128", "unit": "µg/mL"},
      {"measurement": "MIC ATB in combination", "setting": "strain ECO UFR177, with AF2 @ 8 μg/mL", "value": "<=0.25 μg/mL"},
      {"measurement": "MIC ATB in combination", "setting": "strain ECO UFR177, with AF3 @ 8 μg/mL", "value": "<0.25", "unit": "µg/mL"},
      {"measurement": "MIC ATB in combination", "setting": "strain ECO UFR177, with CLA @ 4 μg/mL", "value": ">128", "unit": "µg/mL"},
      {"measurement": "MIC", "setting": "strain ECO UFR178, genotype TEM-1, CTX-M-15, OXA-9, NDM-1, antibiotic alone", "value": ">128", "unit": "µg/mL"},
      {"measurement": "MIC ATB in combination", "setting": "strain ECO UFR178, with AF2 @ 8 μg/mL", "value": "<0.25", "unit": "µg/mL"},
      {"measurement": "MIC ATB in combination", "setting": "strain ECO UFR178, with AF3 @ 8 μg/mL", "value": "<0.25", "unit": "µg/mL"},
      {"measurement": "MIC ATB in combination", "setting": "strain ECO UFR178, with CLA @ 4 μg/mL", "value": ">128", "unit": "µg/mL"},
      {"measurement": "MIC", "setting": "strain ECO UFR179, genotype TEM-1, SHV-12, CTX-M-15, NDM-1, antibiotic alone", "value": ">128", "unit": "µg/mL"},
      {"measurement": "MIC ATB in combination", "setting": "strain ECO UFR179, with AF2 @ 8 μg/mL", "value": "<0.25", "unit": "µg/mL"},
      {"measurement": "MIC ATB in combination", "setting": "strain ECO UFR179, with AF3 @ 8 μg/mL", "value": "<0.25", "unit": "µg/mL"},
      {"measurement": "MIC ATB in combination", "setting": "strain ECO UFR179, with CLA @ 4 μg/mL", "value": ">128", "unit": "µg/mL"},
      {"measurement": "MIC", "setting": "strain ECO UFR180, genotype TEM-1, CMY-30, OXA-1, NDM-1, antibiotic alone", "value": ">128", "unit": "µg/mL"},
      {"measurement": "MIC ATB in combination", "setting": "strain ECO UFR180, with AF2 @ 8 μg/mL", "value": "<0.25", "unit": "µg/mL"},
      {"measurement": "MIC ATB in combination", "setting": "strain ECO UFR180, with AF3 @ 8 μg/mL", "value": "<0.25", "unit": "µg/mL"},
      {"measurement": "MIC ATB in combination", "setting": "strain ECO UFR180, with CLA @ 4 μg/mL", "value": ">128", "unit": "µg/mL"},
      {"measurement": "MIC", "setting": "strain ECO UFR181, genotype TEM-1, CTX-M-15, NDM-5, antibiotic alone", "value": ">128", "unit": "µg/mL"},
      {"measurement": "MIC ATB in combination", "setting": "strain ECO UFR181, with AF2 @ 8 μg/mL", "value": "<=0.25 μg/mL"},
      {"measurement": "MIC ATB in combination", "setting": "strain ECO UFR181, with AF3 @ 8 μg/mL", "value": ">128", "unit": "µg/mL"},
      {"measurement": "MIC ATB in combination", "setting": "strain ECO UFR181, with CLA @ 4 μg/mL", "value": ">128", "unit": "µg/mL"},
      {"measurement": "MIC", "setting": "strain ECO UFR182, genotype CTX-M-15, OXA-1, NDM-6, antibiotic alone", "value": ">128", "unit": "µg/mL"},
      {"measurement": "MIC ATB in combination", "setting": "strain ECO UFR182, with AF2 @ 8 μg/mL", "value": "<0.25", "unit": "µg/mL"},
      {"measurement": "MIC ATB in combination", "setting": "strain ECO UFR182, with AF3 @ 8 μg/mL", "value": "<0.25", "unit": "µg/mL"},
      {"measurement": "MIC ATB in combination", "setting": "strain ECO UFR182, with CLA @ 4 μg/mL", "value": ">128", "unit": "µg/mL"},
      {"measurement": "MIC", "setting": "strain ECO UFR183, genotype CTX-M-15, OXA-1, NDM-7, antibiotic alone", "value": ">128", "unit": "µg/mL"},
      {"measurement": "MIC ATB in combination", "setting": "strain ECO UFR183, with AF2 @ 8 μg/mL", "value": ">128", "unit": "µg/mL"},
      {"measurement": "MIC ATB in combination", "setting": "strain ECO UFR183, with AF3 @ 8 μg/mL", "value": ">128", "unit": "µg/mL"},
      {"measurement": "MIC ATB in combination", "setting": "strain ECO UFR183, with CLA @ 4 μg/mL", "value": ">128", "unit": "µg/mL"},
      {"measurement": "MIC", "setting": "strain ECO UFR184, genotype CTX-M-15, CMY-4, OXA-1, OXA-204", "value": ">128", "unit": "µg/mL"},
      {"measurement": "MIC", "setting": "strain ECO UFR185, genotype OXA-48", "value": ">128", "unit": "µg/mL"},
      {"measurement": "MIC", "setting": "strain ECO UFR186, genotype TEM-1, CTX-M-14, OXA-48", "value": 32, "unit": "µg/mL"},
      {"measurement": "MIC ATB in combination", "setting": "strain ECO UFR186, with AF2 @ 8 μg/mL", "value": "<0.25", "unit": "µg/mL"},
      {"measurement": "MIC ATB in combination", "setting": "strain ECO UFR186, with AF3 @ 8 μg/mL", "value": "<0.25", "unit": "µg/mL"},
      {"measurement": "MIC ATB in combination", "setting": "strain ECO UFR186, with CLA @ 4 μg/mL", "value": 8, "unit": "µg/mL"},
      {"measurement": "MIC", "setting": "strain ECO UFR187, genotype CTX-M-15, OXA-48", "value": 32, "unit": "µg/mL"},
      {"measurement": "MIC ATB in combination", "setting": "strain ECO UFR187, with AF2 @ 8 μg/mL", "value": "<=0.25 μg/mL"},
      {"measurement": "MIC ATB in combination", "setting": "strain ECO UFR187, with AF3 @ 8 μg/mL", "value": 0.5, "unit": "µg/mL"},
      {"measurement": "MIC ATB in combination", "setting": "strain ECO UFR187, with CLA @ 4 μg/mL", "value": 2, "unit": "µg/mL"},
      {"measurement": "MIC", "setting": "strain ECO UFR189, genotype TEM-1, CTX-M-15, OXA-48", "value": ">128", "unit": "µg/mL"},
      {"measurement": "MIC ATB in combination", "setting": "strain ECO UFR189, with AF2 @ 8 μg/mL", "value": "<0.25", "unit": "µg/mL"},
      {"measurement": "MIC ATB in combination", "setting": "strain ECO UFR189, with AF3 @ 8 μg/mL", "value": "<0.25", "unit": "µg/mL"},
      {"measurement": "MIC ATB in combination", "setting": "strain ECO UFR189, with CLA @ 4 μg/mL", "value": 4, "unit": "µg/mL"},
      {"measurement": "MIC", "setting": "strain ECO UFR190, genotype CTX-M-24, OXA-48", "value": 64, "unit": "µg/mL"},
      {"measurement": "MIC ATB in combination", "setting": "strain ECO UFR190, with AF2 @ 8 μg/mL", "value": "<0.25", "unit": "µg/mL"},
      {"measurement": "MIC ATB in combination", "setting": "strain ECO UFR190, with AF3 @ 8 μg/mL", "value": "<0.25", "unit": "µg/mL"},
      {"measurement": "MIC ATB in combination", "setting": "strain ECO UFR190, with CLA @ 4 μg/mL", "value": 8, "unit": "µg/mL"}
    ]}
  ]
}
